Assay results as given in US10357477B2, “Anticancer compounds” (REGENTS OF THE UNIVERSITY OF MINNESOTA, priority 2016, dated 2019).

Legend:
MIA PaCa-2 cells = assay: Cell viability assay (MTT) in MIA PaCa-2 cells; type: cell-based; conditions: Homo sapiens, antiproliferative activity, 72 h
Method: MIA PaCa-2 cells (CRL-1420, ATCC) were maintained in DMEM media supplemented with 10% FBS, 2.5% HS, 1% GlutaMAX, 1% sodium pyruvate, 100 U/mL penicillin, and 100 μg/mL streptomycin. Cell culture media and additives were purchased from Gibco. Cells were plated in 96-well plates at |1−2.5|×10^4 cells per well in the DMEM growth media. One microliter of a 2-fold serially diluted compound solution in DMSO (Sigma) starting at 20 mM (100 μM final concentration) was added to each well. The final volume in each well was 200 μL, yielding a final DMSO concentration of 0.5%. Control wells contained 0.5% DMSO (100% viability) or 25% DMSO (background) and all reactions were done in triplicate. The plate was incubated for 72 h at 37° C. in a 5% CO2/95% air humidified atmosphere.
Measurement of cell viability was carried out using a modified method of Mosmann based on 3-(4,5-dimethylthiazol-2-yl)-2,5-diphenyltetrazolium bromide (MTT, Sigma). MTT solution was prepared fresh at 1 mg/mL in serum-free and phenol red-free RPMI 1640 media. After 200 μL of MTT solution was added to each well, the plate was incubated as described above for 3 h. The MTT solution was removed, and the formazan crystals were solubilized with 200 μL of isopropanol. The plate was read on a SpectraMax i3 spectrophotometer (Molecular Devices) at 570 nm for formazan and 650 nm for background subtraction. EC50 values were calculated by fitting the data in GraphPad Prism software. EC50 values were determined in triplicate.

Panc-1 cells = assay: Cell viability assay (MTT) in Panc-1 cells; type: cell-based; conditions: Homo sapiens, antiproliferative activity, 72 h
Method: Panc-1 cells are maintained in RPMI 1640 (Invitrogen 11875) media supplemented with 10% FBS, 1% Penicillin/Streptomycin and 1% Glutamax-1. Cells were plated in 96-well plates at 25×10^4 cells/ml. After 24 hours, compounds were added at 9, 3× dilutions in triplicate from 100 uM final concentration in the appropriate growth media. Plates were incubated for 72 hours at 37° C. in a 5% CO2/95% air humidified atmosphere after which time the media was removed and MTT was added in RPMI phenol red free media. The MTT was removed after 3 hours and formazan crystals were solubilized with 200 μL of isopropanol. Plates were read on a Molecular Devices SpectraMax i3 spectrophotometer at 570 nm for formazan and 690 nm for background subtraction. EC50 values were calculated by fitting the data in GraphPad Prism software.

[1] = Plasma stability assay, mouse plasma; type: in vitro ADME; conditions: 37° C., 24 h
Method: (§1) The plasma stability assay was performed in triplicate by incubating a compound in normal mouse and human plasma at 37° C. At 0, 1, 3, 6, and 24 h, aliquots of the plasma mixture were taken and quenched with 3 volumes of acetonitrile containing an appropriate internal standard. The samples were then vortexed and centrifuged at 14,000 rpm for 5 min. The supernatants were collected and analyzed by LC-MS/MS to determine the remaining percentage at various time points.
(§2) Quantification and analysis of compounds in biological samples were carried out on an AB Sciex QTrap 5500 mass spectrometer coupled with an Agilent 1260 Infinity HPLC. The chromatographic separation of compounds was achieved using a Phenomenex Kinetex C18 column (50×2.1 mm, 2.6 μm), and MS/MS analysis was conducted using an ESI ion source with MRM detection. The MS/MS detection parameters including declustering potential (DP), entrance potential (EP), collision energy (CE), and collision cell exit potential (CXP) were optimized for each compound.

[2] = Plasma stability assay, human plasma; type: in vitro ADME; conditions: 37° C., 24 h
Method: as §1, §2

[3] = Microsomal stability assay, mouse liver microsomes; type: in vitro ADME; conditions: pH 7.4; mouse liver microsomes 0.5 mg/mL, 1 mM NADPH, 1 μM compound; read-out: Microsomal Stability t1/2 Mouse
Method: (§3) The in vitro microsomal stability assay was conducted in triplicate in mouse and human liver microsomal systems. In a typical incubation, a compound (typically 1 μM final concentration) was spiked into the reaction mixture containing 0.5 mg/mL of liver microsomal protein and 1 mM of NADPH in 0.1 M potassium phosphate buffer (pH 7.4) at 37° C. At various time points, 1 volume of reaction aliquot was taken and quenched with 3 volumes of acetonitrile with an appropriate internal standard. The samples were then vortexed and centrifuged at 14,000 rpm for 5 min. The supernatants were collected and analyzed by LC-MS/MS to determine the in vitro metabolic half-life (t1/2) and intrinsic clearance (CLint). Verapamil was used as a positive control.
as §2

[4] = Microsomal stability assay, human liver microsomes; type: in vitro ADME; conditions: pH 7.4; human liver microsomes 0.5 mg/mL, 1 mM NADPH, 1 μM compound; read-out: Microsomal Stability t1/2 Human
Method: as §3, §2

[5] = Caco-2 permeability assay; type: in vitro ADME; conditions: human, pH 7.4
Method: Cell Culture. The human colon adenocarcinoma cell line Caco-2 was purchased from ATCC (American Type Culture Collection, Manassas, Va.), and was cultured in a humidified atmosphere of 5% CO2 at 37° C. Caco-2 cells were cultured in DMEM with 10% FBS, 1% NEAA, 1% GlutaMax and 1% penicillin and streptomycin solution. The culture medium was changed every other day during cell growth and differentiation. On achieving 80-90% confluence, the cells were rinsed with pre-warm DPBS (pH 7.4) and split using trypsin. The cells were then seeded on membranes of Millipore Millicell-24 cell culture device. The transepithelial electrical resistance (TEER) were assessed to reflect membrane integrity using a Millicells® ERS-2 (Millipore, USA). The Caco-2 cell monolayers were used for transport experiments on day 21 post-seeding with TEER values >500 Ω·cm2. Bidirectional Transport Experiments. Before the transport experiments, the cell monolayer was washed three times with HBSS. Then, the plates were incubated in fresh permeability assay buffer (HBSS containing 10 mM glucose and 20 mM HEPES, pH 7.4) at 37° C. The experiments were conducted by spiking test compounds to either the apical (AP, 0.4 mL) or basolateral side (BL, 0.8 mL), while the receiving chamber contained the corresponding volume of pre-warmed permeability assay buffer. Every experiment was repeated in duplicate, and the plates were incubated in an orbital shaker at 37° C., 50 rpm/min. To assess the drug transport, at the incubation time of 20, 40, 60 and 80 min, aliquot was removed and was immediately replenished with an equal volume of permeability assay buffer. The samples were then subjected to LC/MS/MS analysis. The apparent permeability coefficient was indicated by the absorption rate constant Papp. It could be calculated as PBA (measured in BL to AP direction) or PAB (measured in AP to BL direction), using the equation of Papp=(dQ/dt)/(A×C0). dQ/dt is the rate at which the compound appears in the receiver chamber (nmol/s), A is the surface area of the filter membrane (0.7 cm2) and C0 is the initial concentration in the donor chamber (μM). Efflux ratio (ER) was calculated by the equation of ER=PBA/PAB, where PBA is the Papp value measured in BL to AP direction, and PAB is the Papp value measured in AP to BL direction.

| SMILES | EC50 (MIA PaCa-2 cells) | EC50 (Panc-1 cells) | Plasma Stability (% remaining, 6 h/24 h) Mouse [1] | Plasma Stability (% remaining, 6 h/24 h) Human [2] | half-life at 1 μM [3] | half-life at 1 μM [4] | Papp A→B at 80 min ([5]; apical to basolateral) | Papp B→A at 80 min ([5]; basolateral to apical) |
| --- | --- | --- | --- | --- | --- | --- | --- | --- |
| CNC(=O)c1cccc(Cn2nc(C)c(NC(=O)c3ccc(COc4ccc(Cl)cc4)cc3)c2C)c1 [Compound D5c, 3-((4-(4-((4-Chlorophenoxy)methyl)benzamido)-3,5-dimethyl-1H-pyrazol-1-yl)methyl)-N-methylbenzamide] | 4.2 µM | 2 µM |  |  |  |  |  |  |
| CNC(=O)c1cccc(Cn2nc(C)c(NC(=O)c3ccc(COc4ccccc4F)cc3)c2C)c1 [Compound D6a, 3-((4-(4-((2-Fluorophenoxy)methyl)benzamido)-3,5-dimethyl-1H-pyrazol-1-yl)methyl)-N-methylbenzamide] | 5.6 µM | 3 µM |  |  |  |  |  |  |
| CNC(=O)c1cccc(Cn2nc(C)c(NC(=O)c3ccc(COc4cccc(F)c4)cc3)c2C)c1 [Compound D6b, 3-((4-(4-((3-Fluorophenoxy)methyl)benzamido)-3,5-dimethyl-1H-pyrazol-1-yl)methyl)-N-methylbenzamide] | 7.7 µM | 0.21 µM |  |  |  |  |  |  |
| CNC(=O)c1cccc(Cn2nc(C)c(NC(=O)c3ccc(COc4ccc(F)cc4)cc3)c2C)c1 [Compound D6c, 3-((4-(4-((4-Fluorophenoxy)methyl)benzamido)-3,5-dimethyl-1H-pyrazol-1-yl)methyl)-N-methylbenzamide] | 3.1 µM | 6.9 µM |  |  |  |  |  |  |
| CNC(=O)c1cccc(Cn2nc(C)c(NC(=O)c3ccc(COc4ccccc4C#N)cc3)c2C)c1 [Compound D7a, 3-((4-(4-((2-Cyanophenoxy)methyl)benzamido)-3,5-dimethyl-1H-pyrazol-1-yl)methyl)-N-methylbenzamide] | 12 µM | 8.5 µM |  |  |  |  |  |  |
| CNC(=O)c1cccc(Cn2nc(C)c(NC(=O)c3ccc(COc4ccc(C#N)cc4)cc3)c2C)c1 [Compound D7c, 3-((4-(4-((4-Cyanophenoxy)methyl)benzamido)-3,5-dimethyl-1H-pyrazol-1-yl)methyl)-N-methylbenzamide] | 5.6 µM | 22 µM |  |  |  |  |  |  |
| CNC(=O)c1cccc(Cn2nc(C)c(NC(=O)c3ccc(COc4ccccc4C(F)(F)F)cc3)c2C)c1 [Compound D9a, 3-((3,5-Dimethyl-4-(4-((2-(trifluoromethyl)phenoxy)methyl)benzamido)-1H-pyrazol-1-yl)methyl)-N-methylbenzamide] | 10 µM | 0.44 µM |  |  |  |  |  |  |
| CNC(=O)c1cccc(Cn2nc(C)c(NC(=O)c3ccc(COc4cccc(C(F)(F)F)c4)cc3)c2C)c1 [Compound D9b, 3-((3,5-Dimethyl-4-(4-((3-(trifluoromethyl)phenoxy)-methyl)benzamido)-1H-pyrazol-1-yl)methyl)-N-methylbenzamide] | 2.3 µM | 0.76 µM |  |  |  |  |  |  |
| CNC(=O)c1cccc(Cn2nc(C)c(NC(=O)c3ccc(COc4ccc(C(F)(F)F)cc4C)cc3)c2C)n1 [Compound E1b, 6-((3,5-Dimethyl-4-(4-((2-methyl-4-(trifluoromethyl)phenoxy)methyl)benzamido)-1H-pyrazol-1-yl)methyl)-N-methylpicolinamide] | 6.3 µM |  | —/96% | —/100% | 1.25 h | 0.783 h | 3.58 ×10⁻⁶ cm/s | 7.17 ×10⁻⁶ cm/s |
| CNC(=O)c1cncc(Cn2nc(C)c(NC(=O)c3ccc(COc4ccc(C(F)(F)F)cc4)cc3)c2C)c1 [Compound E3a, 5-((3,5-Dimethyl-4-(4-((4-(trifluoromethyl)phenoxy)methyl)benzamido)-1H-pyrazol-1-yl)methyl)-N-methylnicotinamide] | 8.6 µM |  | —/100% | —/94% | 2.4 h | 1.37 h |  |  |
| CNC(=O)c1cncc(Cn2nc(C)c(NC(=O)c3ccc(COc4ccc(C(F)(F)F)cc4C)cc3)c2C)c1 [Compound E3b, 5-((3,5-Dimethyl-4-(4-((2-methyl-4-(trifluoromethyl)phenoxy)methyl)benzamido)-1H-pyrazol-1-yl)methyl)-N-methylnicotinamide] | 7.6 µM |  | —/100% | —/98% | 2.32 h | 1.23 h |  |  |
| CNC(=O)c1ccnc(Cn2nc(C)c(NC(=O)c3ccc(COc4ccc(C(F)(F)F)cc4)cc3)c2C)c1 [Compound E4a, 2-((3,5-Dimethyl-4-(4-((4-(trifluoromethyl)phenoxy)methyl)benzamido)-1H-pyrazol-1-yl)methyl)-N-methylisonicotinamide] | 13 µM |  | —/98% | —/97% | 2.52 h | 1.08 h |  |  |
| CNC(=O)c1ccnc(Cn2nc(C)c(NC(=O)c3ccc(COc4ccc(C(F)(F)F)cc4C)cc3)c2C)c1 [Compound E4b, 2-((3,5-Dimethyl-4-(4-((2-methyl-4-(trifluoromethyl)phenoxy)methyl)benzamido)-1H-pyrazol-1-yl)methyl)-N-methylisonicotinamide] | 4.9 µM |  | —/99% | —/98% | 2.1 h | 0.95 h |  |  |
